From ChEMBL document CHEMBL1201862, “PubChem BioAssay data set” (2004)
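In this assay, cells in 96-well plates receive the compound at five concentrations for 48 hours. Endpoints are linearly interpolated between the surrounding concentrations. GI50 is the concentration that inhibits growth by half.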 Calls of active or inactive are those of the source. Rule as the data show it: active = GI50 up to about 1.1 µM and inactive = higher.

Tests used:
Test in all cases: NCI tumour cell line growth inhibition, 48 h
[1] = tested on: A549
[2] = tested on: DU-145
[3] = tested on: EKVX
[4] = tested on: HCT-116
[5] = tested on: HOP-62
[6] = tested on: IGROV-1
[7] = tested on: MCF7
[8] = tested on: Malme-3M
[9] = tested on: NCI-H226
[10] = tested on: OVCAR-4
[11] = tested on: OVCAR-5
[12] = tested on: PC-3
[13] = tested on: SF-295
[14] = tested on: SK-MEL-2
[15] = tested on: SK-MEL-5
[16] = tested on: T47D
[17] = tested on: TK-10
[18] = tested on: UO-31
[19] = tested on: BT-549
[20] = tested on: UACC-257

Measured: GI50

CCN(CC)CCC1CCCCN1CC(=O)N1c2cc(Cl)ccc2NC(=O)CC1C (centres undefined)
inactive: [1] > 100 µM | [2] > 100 µM | [3] > 100 µM | [4] > 100 µM | [5] > 100 µM | [6] > 100 µM | [7] > 100 µM | [8] > 100 µM | [9] > 100 µM | [10] > 100 µM | [11] > 100 µM | [12] > 100 µM | [13] > 100 µM | [14] > 100 µM | [15] > 100 µM | [16] > 100 µM | [17] > 100 µM | [18] > 100 µM

ClCCCC1COc2ccccc2O1 (centres undefined)
inactive: [1] > 100 µM | [19] 23.1 µM | [2] > 100 µM | [3] > 100 µM | [4] 45.7 µM | [5] > 100 µM | [6] 46.3 µM | [7] > 100 µM | [8] > 100 µM | [9] > 100 µM | [10] > 100 µM | [11] 55.8 µM | [12] > 100 µM | [13] > 100 µM | [15] > 100 µM | [17] > 100 µM | [20] > 100 µM | [18] > 100 µM

CCCCC[C@@H]1OC(=O)[C@@]2(CC3c4ccccc4C2c2ccccc23)[C@H]1C(=O)OC
inactive: [1] 24.4 µM | [19] > 100 µM | [2] > 100 µM | [3] 39.7 µM | [4] 12.4 µM | [5] > 100 µM | [6] > 100 µM | [7] 21.8 µM | [8] 53.2 µM | [10] 58.2 µM | [11] > 100 µM | [12] 14.6 µM | [13] 71 µM | [14] 28.4 µM | [15] 17.2 µM | [17] 35.9 µM | [20] 14.5 µM | [18] 85.3 µM

COC(=O)C1CCC(=O)N1C(c1cc(OC)c(OC)c(OC)c1)c1cccc2ccccc12 (centres undefined)
inactive: [1] > 100 µM | [2] > 100 µM | [3] > 100 µM | [4] > 100 µM | [5] > 100 µM | [6] > 100 µM | [7] > 100 µM | [9] > 100 µM | [11] > 100 µM | [12] > 100 µM | [13] > 100 µM | [14] > 100 µM | [16] > 100 µM | [17] > 100 µM | [20] > 100 µM | [18] 61.2 µM

O=[N+]([O-])/C(C(Cl)=C(Cl)Cl)=C1\NCCO1
inactive: [1] > 100 µM | [2] > 100 µM | [3] > 100 µM | [4] 87.5 µM | [5] > 100 µM | [6] > 100 µM | [7] > 100 µM | [8] 45.8 µM | [9] 39.3 µM | [10] 35.1 µM | [11] > 100 µM | [12] > 100 µM | [13] > 100 µM | [14] > 100 µM | [15] > 100 µM | [16] 59.4 µM | [17] > 100 µM | [20] > 100 µM | [18] > 100 µM

CS(=O)(=O)OCOS(C)(=O)=O
inactive: [1] > 100 µM | [19] > 100 µM | [2] 59.6 µM | [3] > 100 µM | [4] > 100 µM | [5] > 100 µM | [6] > 100 µM | [7] 34.4 µM | [9] 40.6 µM | [10] > 100 µM | [11] > 100 µM | [12] > 100 µM | [13] > 100 µM | [14] > 100 µM | [15] > 100 µM | [17] > 100 µM | [20] > 100 µM | [18] > 100 µM

Cc1ccc(-c2c(C#N)c(-c3ccccc3)n(NS(=O)(=O)c3ccccc3)c(=O)c2C#N)cc1
inactive: [1] > 100 µM | [19] 64 µM | [3] > 100 µM | [4] 74.5 µM | [5] 64.7 µM | [6] 40.6 µM | [7] 76.2 µM | [8] 61.5 µM | [9] > 100 µM | [10] > 100 µM | [11] > 100 µM | [12] 48.1 µM | [13] 60.7 µM | [14] > 100 µM | [15] 34.6 µM | [17] > 100 µM | [20] > 100 µM

Cn1c2ccccc2c2nc3ccccc3c(Cl)c21
inactive: [1] > 100 µM | [19] > 100 µM | [2] > 100 µM | [4] > 100 µM | [5] > 100 µM | [6] > 100 µM | [7] > 100 µM | [8] > 100 µM | [9] > 100 µM | [10] > 100 µM | [11] 49 µM | [12] > 100 µM | [13] > 100 µM | [14] > 100 µM | [17] > 100 µM | [20] > 100 µM

C/C=C/C(C/C=C(\C)CO[Si](C)(C)C(C)(C)C)O[Si](C)(C)C(C)(C)C (centres undefined)
inactive: [1] > 100 µM | [2] > 100 µM | [3] > 100 µM | [4] > 100 µM | [5] > 100 µM | [6] > 100 µM | [7] > 100 µM | [8] > 100 µM | [9] > 100 µM | [10] > 100 µM | [11] > 100 µM | [12] > 100 µM | [13] > 100 µM | [14] > 100 µM | [15] > 100 µM | [16] > 100 µM | [17] > 100 µM | [20] > 100 µM | [18] > 100 µM

CS/C(=N/S(=O)(=O)c1ccc(Cl)cc1)NCCCN/C(=N\S(=O)(=O)c1ccc(Cl)cc1)SC
inactive: [2] 23.6 µM | [3] 12.7 µM | [4] 21.6 µM | [5] 24.8 µM | [6] 30.4 µM | [7] 8.28 µM | [8] 15.7 µM | [10] 3.56 µM | [11] 25.2 µM | [12] 4.62 µM | [13] 12.7 µM | [14] 14.2 µM | [16] 7.35 µM | [17] 14.5 µM | [20] 6.15 µM | [18] 13 µM

[C-]#[N+]C1(C(=O)OCC)CC1
inactive: [1] > 100 µM | [2] > 100 µM | [3] > 100 µM | [4] > 100 µM | [5] > 100 µM | [6] > 100 µM | [7] > 100 µM | [8] > 100 µM | [9] > 100 µM | [10] > 100 µM | [11] > 100 µM | [12] > 100 µM | [13] > 100 µM | [15] > 100 µM | [16] > 100 µM | [17] > 100 µM | [20] > 100 µM

Cc1ccc(C(O)c2cnc(C)n2Cc2ccccc2)cc1 (centres undefined)
inactive: [1] > 100 µM | [19] > 100 µM | [2] > 100 µM | [3] > 100 µM | [4] > 100 µM | [5] > 100 µM | [6] > 100 µM | [7] > 100 µM | [8] > 100 µM | [9] > 100 µM | [10] > 100 µM | [11] > 100 µM | [12] > 100 µM | [13] > 100 µM | [14] > 100 µM | [15] 79.1 µM | [17] > 100 µM | [20] 67.1 µM | [18] > 100 µM

Nc1nc(-c2ccccc2)cc(-c2ccc(OCc3ccccc3)cc2O)n1
inactive: [1] 33.4 µM | [19] 28.8 µM | [2] 73.6 µM | [3] 50.4 µM | [4] 28.8 µM | [5] 83.9 µM | [6] 32.7 µM | [7] 32.1 µM | [8] 24.2 µM | [9] 46.1 µM | [10] 71.6 µM | [11] > 100 µM | [12] 34.4 µM | [13] 36.4 µM | [14] 32.4 µM | [15] 17.5 µM | [17] 24.7 µM | [20] 48.8 µM | [18] 38.1 µM

COc1nc2c(c(=O)n1C)N=C(c1ccccc1)[C@H](C(CC(=O)c1ccccc1)c1ccccc1)C(c1ccccc1)N2 (some centres undefined)
inactive: [1] 32.3 µM | [19] > 100 µM | [2] > 100 µM | [3] 22.2 µM | [4] 88.1 µM | [5] > 100 µM | [6] 49.3 µM | [7] 36.1 µM | [9] 69.2 µM | [10] 20.1 µM | [11] > 100 µM | [12] 42 µM | [13] 70 µM | [14] > 100 µM | [15] 60.8 µM | [20] > 100 µM | [18] 38.2 µM

O=C1C=C/C(=N\N=C(c2ccccc2)c2ccccc2)O1
inactive: [1] > 10 µM | [2] > 10 µM | [3] > 10 µM | [5] > 10 µM | [6] > 10 µM | [7] > 10 µM | [8] > 10 µM | [10] > 10 µM | [12] > 10 µM | [13] > 10 µM | [15] > 10 µM | [16] > 10 µM | [17] > 10 µM | [20] > 10 µM

COc1cc(CNC2=NCCC2)cc(OC)c1OC
inactive: [1] > 100 µM | [19] > 100 µM | [2] > 100 µM | [3] 56.1 µM | [4] 39.6 µM | [5] > 100 µM | [6] > 100 µM | [7] > 100 µM | [8] > 100 µM | [9] > 100 µM | [10] > 100 µM | [11] > 100 µM | [12] > 100 µM | [13] > 100 µM | [15] > 100 µM | [17] > 100 µM | [20] > 100 µM | [18] > 100 µM
